Legend:
[1] = target: Activated CDC42 kinase 1 (Homo sapiens) (UniProt Q07912); assay: Inhibition of ACK1(h) at 10.0 µM in the Eurofins Kinase panel; conditions: Compound concentration 10.0 uM
[2] = target: Activin receptor type-1B (Homo sapiens) (UniProt P36896); assay: Inhibition of ALK4(h) at 10.0 µM in the Eurofins Kinase panel; conditions: Compound concentration 10.0 uM
[3] = target: 5'-AMP-activated protein kinase catalytic subunit alpha-1 (Homo sapiens) (UniProt Q13131); assay: Inhibition of AMPKalpha1(h) at 10.0 µM in the Eurofins Kinase panel; conditions: Compound concentration 10.0 uM
[4] = target: Serine/threonine-protein kinase B-raf (Homo sapiens) (UniProt P15056); assay: Inhibition of B-Raf(h) at 10.0 µM in the Eurofins Kinase panel; conditions: Compound concentration 10.0 uM
[5] = target: Calcium/calmodulin-dependent protein kinase type IV (Homo sapiens) (UniProt Q16566); assay: Inhibition of CaMKIV(h) at 10.0 µM in the Eurofins Kinase panel; conditions: Compound concentration 10.0 uM
Chain of Calcium/calmodulin-dependent protein kinase type IV (Homo sapiens) (Q16566 whole entry): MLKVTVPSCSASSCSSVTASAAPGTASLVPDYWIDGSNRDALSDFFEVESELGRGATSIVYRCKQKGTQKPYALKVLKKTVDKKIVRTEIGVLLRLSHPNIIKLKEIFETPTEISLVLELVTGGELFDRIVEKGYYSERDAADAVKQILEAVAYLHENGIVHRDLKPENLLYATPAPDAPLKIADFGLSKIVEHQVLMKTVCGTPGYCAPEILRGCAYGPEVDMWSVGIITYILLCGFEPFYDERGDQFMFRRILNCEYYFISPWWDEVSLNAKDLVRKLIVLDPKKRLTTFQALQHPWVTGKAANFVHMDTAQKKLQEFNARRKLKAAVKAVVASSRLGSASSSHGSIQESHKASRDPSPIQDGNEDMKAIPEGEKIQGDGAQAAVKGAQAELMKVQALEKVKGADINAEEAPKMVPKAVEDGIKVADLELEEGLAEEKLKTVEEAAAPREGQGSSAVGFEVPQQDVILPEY

[6] = target: Tyrosine-protein kinase CSK (Homo sapiens) (UniProt P41240); assay: Inhibition of CSK(h) at 10.0 µM in the Eurofins Kinase panel; conditions: Compound concentration 10.0 uM
[7] = target: Serine/threonine-protein kinase 17A (Homo sapiens) (UniProt Q9UEE5); assay: Inhibition of DRAK1(h) at 10.0 µM in the Eurofins Kinase panel; conditions: Compound concentration 10.0 uM
Chain of Serine/threonine-protein kinase 17A (Homo sapiens) (Q9UEE5 whole entry): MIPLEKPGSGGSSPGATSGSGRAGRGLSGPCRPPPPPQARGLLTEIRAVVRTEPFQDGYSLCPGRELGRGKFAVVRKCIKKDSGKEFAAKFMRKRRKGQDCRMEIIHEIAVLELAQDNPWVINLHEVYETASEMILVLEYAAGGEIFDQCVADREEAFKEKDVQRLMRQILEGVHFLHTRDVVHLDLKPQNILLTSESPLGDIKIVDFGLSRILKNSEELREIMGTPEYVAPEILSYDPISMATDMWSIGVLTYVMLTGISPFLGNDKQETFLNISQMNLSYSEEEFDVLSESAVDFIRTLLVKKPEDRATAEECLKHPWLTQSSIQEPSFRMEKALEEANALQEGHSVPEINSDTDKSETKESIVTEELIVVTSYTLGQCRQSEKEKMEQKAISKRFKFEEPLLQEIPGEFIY

[8] = target: Focal adhesion kinase 1 (Homo sapiens) (UniProt Q05397); assay: Inhibition of FAK(h) at 10.0 µM in the Eurofins Kinase panel; conditions: Compound concentration 10.0 uM
Chain of Focal adhesion kinase 1 (Homo sapiens) (Q05397 2-1052 limits assumed): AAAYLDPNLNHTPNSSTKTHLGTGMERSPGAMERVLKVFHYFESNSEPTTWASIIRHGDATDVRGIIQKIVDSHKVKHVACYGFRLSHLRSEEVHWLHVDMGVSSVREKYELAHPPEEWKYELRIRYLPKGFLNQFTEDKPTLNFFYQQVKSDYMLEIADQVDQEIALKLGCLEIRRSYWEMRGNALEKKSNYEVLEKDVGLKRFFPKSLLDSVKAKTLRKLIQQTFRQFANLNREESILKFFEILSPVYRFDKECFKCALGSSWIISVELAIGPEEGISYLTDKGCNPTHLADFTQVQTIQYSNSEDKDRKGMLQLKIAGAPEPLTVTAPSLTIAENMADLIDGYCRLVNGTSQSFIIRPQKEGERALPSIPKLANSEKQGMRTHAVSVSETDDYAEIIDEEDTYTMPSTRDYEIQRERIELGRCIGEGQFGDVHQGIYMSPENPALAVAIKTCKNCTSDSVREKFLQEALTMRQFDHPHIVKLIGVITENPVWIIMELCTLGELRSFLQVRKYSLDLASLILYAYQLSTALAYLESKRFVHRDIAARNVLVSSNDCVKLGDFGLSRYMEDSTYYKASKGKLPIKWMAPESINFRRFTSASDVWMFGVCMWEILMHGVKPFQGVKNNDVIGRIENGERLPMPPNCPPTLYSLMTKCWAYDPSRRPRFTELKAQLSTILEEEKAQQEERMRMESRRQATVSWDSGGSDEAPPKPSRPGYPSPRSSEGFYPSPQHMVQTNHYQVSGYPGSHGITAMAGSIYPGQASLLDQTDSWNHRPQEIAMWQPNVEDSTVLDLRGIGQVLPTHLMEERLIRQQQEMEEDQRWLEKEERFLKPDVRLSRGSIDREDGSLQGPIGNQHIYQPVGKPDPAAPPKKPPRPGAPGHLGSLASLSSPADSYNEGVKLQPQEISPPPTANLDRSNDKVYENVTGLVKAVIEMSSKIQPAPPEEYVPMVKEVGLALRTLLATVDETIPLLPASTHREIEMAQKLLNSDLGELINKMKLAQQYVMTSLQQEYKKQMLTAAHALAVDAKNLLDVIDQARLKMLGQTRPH

[9] = target: eIF-2-alpha kinase GCN2 (Homo sapiens) (UniProt Q9P2K8); assay: Inhibition of GCN2(h) at 10.0 µM in the Eurofins Kinase panel; conditions: Compound concentration 10.0 uM
[10] = target: Tyrosine-protein kinase HCK (Homo sapiens) (UniProt P08631); assay: Inhibition of Hck(h) activated at 10.0 µM in the Eurofins Kinase panel; conditions: Compound concentration 10.0 uM
[11] = target: Homeodomain-interacting protein kinase 3 (Homo sapiens) (UniProt Q9H422); assay: Inhibition of HIPK3(h) at 10.0 µM in the Eurofins Kinase panel; conditions: Compound concentration 10.0 uM
[12] = target: Homeodomain-interacting protein kinase 4 (Homo sapiens) (UniProt Q8NE63); assay: Inhibition of HIPK4(h) at 10.0 µM in the Eurofins Kinase panel; conditions: Compound concentration 10.0 uM
[13] = target: Interleukin-1 receptor-associated kinase 4 (Homo sapiens) (UniProt Q9NWZ3); assay: Inhibition of IRAK4(h) at 10.0 µM in the Eurofins Kinase panel; conditions: Compound concentration 10.0 uM
Chain of Interleukin-1 receptor-associated kinase 4 (Homo sapiens) (Q9NWZ3 whole entry): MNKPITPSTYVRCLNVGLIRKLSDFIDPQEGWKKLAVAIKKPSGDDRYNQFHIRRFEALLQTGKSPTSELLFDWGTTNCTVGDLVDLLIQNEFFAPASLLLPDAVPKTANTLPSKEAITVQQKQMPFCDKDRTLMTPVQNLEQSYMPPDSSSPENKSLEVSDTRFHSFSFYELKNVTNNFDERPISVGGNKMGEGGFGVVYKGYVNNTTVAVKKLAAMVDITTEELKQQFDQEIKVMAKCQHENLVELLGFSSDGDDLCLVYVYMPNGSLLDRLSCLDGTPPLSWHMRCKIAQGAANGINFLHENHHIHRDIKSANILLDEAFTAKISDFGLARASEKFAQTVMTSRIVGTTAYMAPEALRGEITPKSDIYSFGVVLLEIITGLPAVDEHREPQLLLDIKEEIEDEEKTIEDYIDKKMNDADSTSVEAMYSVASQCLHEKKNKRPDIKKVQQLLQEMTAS

[14] = target: Tyrosine-protein kinase Lyn (Homo sapiens) (UniProt P07948); assay: Inhibition of Lyn(h) at 10.0 µM in the Eurofins Kinase panel; conditions: Compound concentration 10.0 uM
[15] = target: Muscle, skeletal receptor tyrosine-protein kinase (Homo sapiens) (UniProt O15146); assay: Inhibition of MuSK(h) at 10.0 µM in the Eurofins Kinase panel; conditions: Compound concentration 10.0 uM
[16] = target: Serine/threonine-protein kinase Nek3 (Homo sapiens) (UniProt P51956); assay: Inhibition of NEK3(h) at 10.0 µM in the Eurofins Kinase panel; conditions: Compound concentration 10.0 uM
[17] = target: Phosphorylase b kinase gamma catalytic chain, skeletal muscle/heart isoform (Homo sapiens) (UniProt Q16816); assay: Inhibition of PhKgamma1(h) at 10.0 µM in the Eurofins Kinase panel; conditions: Compound concentration 10.0 uM
[18] = target: Serine/threonine-protein kinase N1 (Homo sapiens) (UniProt Q16512); assay: Inhibition of PRK1(h) at 10.0 µM in the Eurofins Kinase panel; conditions: Compound concentration 10.0 uM
[19] = target: Proto-oncogene tyrosine-protein kinase receptor Ret (Homo sapiens) (UniProt P07949); assay: Inhibition of Ret(h) at 10.0 µM in the Eurofins Kinase panel; conditions: Compound concentration 10.0 uM
[20] = target: Receptor-interacting serine/threonine-protein kinase 1 (Homo sapiens) (UniProt Q13546); assay: Inhibition of RIPK1(h) at 10.0 µM in the Eurofins Kinase panel; conditions: Compound concentration 10.0 uM
Chain of Receptor-interacting serine/threonine-protein kinase 1 (Homo sapiens) (Q13546 whole entry): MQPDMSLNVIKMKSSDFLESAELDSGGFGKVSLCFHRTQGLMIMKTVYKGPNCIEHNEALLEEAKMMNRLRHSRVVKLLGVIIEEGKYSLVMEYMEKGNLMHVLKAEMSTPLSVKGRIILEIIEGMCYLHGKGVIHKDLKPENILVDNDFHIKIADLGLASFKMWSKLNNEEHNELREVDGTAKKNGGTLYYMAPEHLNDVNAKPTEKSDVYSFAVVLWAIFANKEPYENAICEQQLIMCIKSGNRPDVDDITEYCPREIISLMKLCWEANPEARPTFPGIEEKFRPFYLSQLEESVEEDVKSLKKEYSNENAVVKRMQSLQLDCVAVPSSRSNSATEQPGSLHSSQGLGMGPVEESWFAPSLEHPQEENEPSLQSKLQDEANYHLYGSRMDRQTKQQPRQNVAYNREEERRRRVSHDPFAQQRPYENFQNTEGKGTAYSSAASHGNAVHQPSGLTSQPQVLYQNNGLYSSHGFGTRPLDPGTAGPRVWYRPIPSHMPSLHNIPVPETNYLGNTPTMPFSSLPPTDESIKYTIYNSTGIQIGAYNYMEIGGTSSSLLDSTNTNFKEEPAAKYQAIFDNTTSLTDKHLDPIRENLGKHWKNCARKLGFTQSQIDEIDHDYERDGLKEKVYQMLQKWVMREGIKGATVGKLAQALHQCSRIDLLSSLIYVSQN

[21] = target: Serine/threonine-protein kinase SBK1 (Homo sapiens) (UniProt Q52WX2); assay: Inhibition of SBK1(h) at 10.0 µM in the Eurofins Kinase panel; conditions: Compound concentration 10.0 uM
[22] = target: SRSF protein kinase 1 (Homo sapiens) (UniProt Q96SB4); assay: Inhibition of SRPK1(h) at 10.0 µM in the Eurofins Kinase panel; conditions: Compound concentration 10.0 uM
[23] = target: Serine/threonine-protein kinase tousled-like 2 (Homo sapiens) (UniProt Q86UE8); assay: Inhibition of TLK2(h) at 10.0 µM in the Eurofins Kinase panel; conditions: Compound concentration 10.0 uM
[24] = target: Serine/threonine-protein kinase VRK2 (Homo sapiens) (UniProt Q86Y07); assay: Inhibition of VRK2(h) at 10.0 µM in the Eurofins Kinase panel; conditions: Compound concentration 10.0 uM
Chain of Serine/threonine-protein kinase VRK2 (Homo sapiens) (Q86Y07 whole entry): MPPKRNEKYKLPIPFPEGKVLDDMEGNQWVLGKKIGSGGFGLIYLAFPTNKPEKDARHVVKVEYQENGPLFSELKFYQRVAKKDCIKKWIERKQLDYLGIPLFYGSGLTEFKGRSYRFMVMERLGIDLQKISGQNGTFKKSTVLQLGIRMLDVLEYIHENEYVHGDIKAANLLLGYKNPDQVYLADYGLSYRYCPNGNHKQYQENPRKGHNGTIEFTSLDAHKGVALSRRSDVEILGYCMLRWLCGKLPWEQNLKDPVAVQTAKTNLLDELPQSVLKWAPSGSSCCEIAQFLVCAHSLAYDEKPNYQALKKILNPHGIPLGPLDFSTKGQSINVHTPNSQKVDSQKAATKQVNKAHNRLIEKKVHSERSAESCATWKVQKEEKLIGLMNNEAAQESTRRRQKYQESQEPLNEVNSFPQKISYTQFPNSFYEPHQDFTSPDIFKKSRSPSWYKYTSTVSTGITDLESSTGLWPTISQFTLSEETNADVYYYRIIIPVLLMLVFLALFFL

[25] = target: Tyrosine-protein kinase Yes (Homo sapiens) (UniProt P07947); assay: Inhibition of Yes(h) at 10.0 µM in the Eurofins Kinase panel; conditions: Compound concentration 10.0 uM
[26] = target: Phosphatidylinositol 4-phosphate 5-kinase type-1 alpha (Homo sapiens) (UniProt Q99755); assay: Inhibition of PIP5K1a(h) at 10.0 µM in the Eurofins Kinase panel; conditions: Compound concentration 10.0 uM
[27] = target: 5-hydroxytryptamine receptor 6 (Homo sapiens) (UniProt P50406); conditions: Compound concentration 10.0 uM
Chain of 5-hydroxytryptamine receptor 6 (Homo sapiens) (P50406 whole entry): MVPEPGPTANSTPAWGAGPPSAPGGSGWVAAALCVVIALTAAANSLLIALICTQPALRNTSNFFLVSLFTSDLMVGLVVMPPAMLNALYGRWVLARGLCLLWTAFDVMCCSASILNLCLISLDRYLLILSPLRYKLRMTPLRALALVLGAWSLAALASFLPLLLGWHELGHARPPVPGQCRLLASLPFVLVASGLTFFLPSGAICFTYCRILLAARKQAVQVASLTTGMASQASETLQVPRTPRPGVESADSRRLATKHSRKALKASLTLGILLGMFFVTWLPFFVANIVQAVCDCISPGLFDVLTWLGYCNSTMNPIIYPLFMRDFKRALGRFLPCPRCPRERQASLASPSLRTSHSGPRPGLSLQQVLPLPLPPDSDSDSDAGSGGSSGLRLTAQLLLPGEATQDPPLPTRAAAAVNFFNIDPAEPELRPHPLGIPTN

[28] = target: Histamine H4 receptor (Homo sapiens) (UniProt Q9H3N8); conditions: Compound concentration 10.0 uM
Chain of Histamine H4 receptor (Homo sapiens) (Q9H3N8 whole entry): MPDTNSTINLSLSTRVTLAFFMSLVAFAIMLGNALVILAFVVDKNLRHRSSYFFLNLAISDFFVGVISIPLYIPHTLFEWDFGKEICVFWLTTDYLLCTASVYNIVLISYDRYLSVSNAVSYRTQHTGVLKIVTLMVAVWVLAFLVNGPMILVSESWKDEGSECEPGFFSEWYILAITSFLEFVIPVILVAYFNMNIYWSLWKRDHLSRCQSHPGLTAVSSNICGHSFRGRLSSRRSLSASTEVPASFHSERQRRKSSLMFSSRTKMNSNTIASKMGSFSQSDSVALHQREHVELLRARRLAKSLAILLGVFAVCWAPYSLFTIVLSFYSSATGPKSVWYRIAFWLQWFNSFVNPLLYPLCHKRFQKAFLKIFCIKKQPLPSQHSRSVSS

[29] = target: Estrogen receptor (Homo sapiens) (UniProt P03372); conditions: Compound concentration 10.0 uM
Chain of Estrogen receptor (Homo sapiens) (P03372 whole entry): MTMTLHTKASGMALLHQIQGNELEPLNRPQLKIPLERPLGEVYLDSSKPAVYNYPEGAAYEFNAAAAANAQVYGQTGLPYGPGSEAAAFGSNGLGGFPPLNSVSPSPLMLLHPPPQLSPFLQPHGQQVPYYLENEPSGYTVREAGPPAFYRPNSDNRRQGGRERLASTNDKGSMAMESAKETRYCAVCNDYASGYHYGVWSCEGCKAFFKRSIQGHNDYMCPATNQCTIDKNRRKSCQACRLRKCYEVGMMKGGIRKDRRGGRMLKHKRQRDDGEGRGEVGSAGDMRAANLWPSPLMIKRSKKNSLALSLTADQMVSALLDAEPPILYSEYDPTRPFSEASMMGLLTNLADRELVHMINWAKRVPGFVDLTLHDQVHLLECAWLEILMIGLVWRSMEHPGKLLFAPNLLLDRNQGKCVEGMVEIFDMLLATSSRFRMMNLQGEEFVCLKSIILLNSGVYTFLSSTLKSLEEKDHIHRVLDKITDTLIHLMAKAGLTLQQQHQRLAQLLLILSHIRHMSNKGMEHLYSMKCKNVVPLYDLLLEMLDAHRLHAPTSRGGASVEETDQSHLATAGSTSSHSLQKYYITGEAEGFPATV

[30] = target: Histamine H1 receptor (Homo sapiens) (UniProt P35367); conditions: Compound concentration 10.0 uM
[31] = target: Kappa-type opioid receptor (Homo sapiens, UniProt P41145); conditions: Compound concentration 10.0 uM
[32] = target: Mu-type opioid receptor (Homo sapiens) (UniProt P35372); conditions: Compound concentration 10.0 uM
[33] = target: T1, Muscarinic acetylcholine receptor M4 (Homo sapiens) (UniProt P08173); conditions: Compound concentration 10.0 uM
T1 sequence (whole entry): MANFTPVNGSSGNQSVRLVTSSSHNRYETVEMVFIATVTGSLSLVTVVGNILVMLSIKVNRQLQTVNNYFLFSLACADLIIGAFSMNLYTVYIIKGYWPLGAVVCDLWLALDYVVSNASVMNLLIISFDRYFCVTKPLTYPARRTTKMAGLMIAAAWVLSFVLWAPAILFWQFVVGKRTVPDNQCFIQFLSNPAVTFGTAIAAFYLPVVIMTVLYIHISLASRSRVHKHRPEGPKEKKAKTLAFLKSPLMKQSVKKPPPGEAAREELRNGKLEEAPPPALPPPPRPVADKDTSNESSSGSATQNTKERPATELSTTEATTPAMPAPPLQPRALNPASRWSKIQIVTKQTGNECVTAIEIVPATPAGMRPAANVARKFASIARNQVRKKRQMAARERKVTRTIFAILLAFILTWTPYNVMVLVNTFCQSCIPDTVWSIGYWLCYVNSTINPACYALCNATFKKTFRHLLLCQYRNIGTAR

[34] = target: Vasopressin V1a receptor (Homo sapiens, UniProt P37288)

Row | Structure (SMILES) | inhibition [1] [%] | inhibition [2] [%] | inhibition [3] [%] | inhibition [4] [%] | inhibition [5] [%] | inhibition [6] [%] | inhibition [7] [%] | inhibition [8] [%] | inhibition [9] [%] | inhibition [10] [%] | inhibition [11] [%] | inhibition [12] [%] | inhibition [13] [%] | inhibition [14] [%] | inhibition [15] [%] | inhibition [16] [%] | inhibition [17] [%] | inhibition [18] [%] | inhibition [19] [%] | inhibition [20] [%] | other results
1 | O=c1n(Cc2cncn2-c2cccc(Cl)c2)nc(-c2ccc(Cl)cc2)n1C[C@H](O)C(F)(F)F | 8.43 | 3.01 | -6.67 | -2.97 | 8.3 | -8.53 | -1.37 | -5.35 | 12.4 | -9.4 | 2.57 | 4.55 | -1.29 | -1.91 | 0.19 | 5.44 | 7.19 | -8.29 | -9.37 | 2.04 | inhibition [21]: 0.97%; inhibition [22]: -4.61%; inhibition [23]: -6.55%; inhibition [24]: 10.4%; inhibition [25]: -2.72%; inhibition [26]: -4.61%; inhibition [27]: 1.09%; inhibition [28]: 0.51%; inhibition [29]: 4%; inhibition [30]: 9%; inhibition [31]: 10%; inhibition [32]: -6%; inhibition [33]: 0%; inhibition ([34]; Compound concentration 10.0 uM): 28%
2 | C[C@H](O)c1nc(Cn2nc(-c3ccc(Cl)cc3)n(C[C@H](O)C(F)(F)F)c2=O)nn1-c1cccc(Cl)c1 [PECAVAPTAN] | -1.31 | 4.03 | -4.1 | -4.03 | 10.3 | -8.59 | -9.63 | -3.02 | 13.1 | -3.97 | 3.3 | -3.59 | 3.56 | -5.89 | -2.36 | 61 | -1.63 | -3.85 | -9.36 | 0.69 | inhibition [21]: -2.61%; inhibition [22]: -6.76%; inhibition [23]: -5.51%; inhibition [24]: 6.61%; inhibition [25]: -6.93%; inhibition [26]: -9.11%; inhibition [27]: 17.4%; inhibition [28]: -1.47%; inhibition [29]: 8%; inhibition [30]: -1%; inhibition [31]: 19%; inhibition [32]: 24%; inhibition [33]: 7%; inhibition ([34]; Compound concentration 0.01 uM): 65%

— ChEMBL document CHEMBL5463729, “Data for DCP probe BAY 1753011” (2023)
